Results reported in paper PMC8501045, “Addressing MRSA infection and antibacterial resistance with peptoid polymers” (Nature Communications, 2021).
In brackets after ≈: the same amount, converted by molar mass. Several values for one entry are separate records, joined by “and”; a condition that tells them apart may be missing. Equal values may be shown once. Read-outs that look alike come from different tables or passages of the source.

Legend:
[1] = test system: S. aureus 2902; experiment: MIC assay, clinical isolate; type: cell-based; details: Staphylococcus aureus; clinical isolate S. aureus 2902; read-out: MIC
Protocol: (§1) MRSA (S. aureus Mu50, S. aureus Newman, S. aureus USA400, S. aureus USA300 LAC, S. aureus USA300) were obtained from Shanghai Institute of Materia Medica, Chinese Academy of Sciences. All clinically isolated Gram-positive bacteria used in this study were isolated from patients with various infections, different ages and sexes in the Shanghai Ruijin Rehabilitation Hospital. All strains were cultured in Luria-Bertani (LB) medium at 37 °C before use.
(§2) Bacteria were cultured in LB medium at 37 °C for 10 h, and then the bacterial suspension was diluted in Mueller–Hinton (MH) medium to a cell density of 2 × 10^5 colony forming units (CFU)/mL as the working suspension. The poly(Naeg)20 was serially diluted by MH medium in a 96-well plate, and an equal volume of bacterial suspension was added into each well. The final concentration of the poly(Naeg)20 was ranging from 200 to 1.56 μg/mL, and the plates were incubated at 37 °C for 9 h. Wells with inoculum and no polymer were used as the positive control; wells with only MH medium were used as the blank. The optical density (OD) in each well was measured on a Molecular Devices SpectraMax M2 precision microplate reader. The percentage of bacteria growth was calculated from1 %cellgrowth=A600polymer-A600blank/A600control-A600blank×100
(§3) The test was independently repeated at least three times.

[2] = test system: S. agalactiae 0613; experiment: MIC assay, clinical isolate; type: cell-based; details: Streptococcus agalactiae; clinical isolate S. agalactiae 0613; read-out: MIC
Protocol: as §1, §2, §3

[3] = test system: S. aureus 2202; experiment: MIC assay, clinical isolate; type: cell-based; details: Staphylococcus aureus; clinical isolate S. aureus 2202; read-out: MIC
Protocol: as §1, §2, §3

[4] = test system: E. faecium 2504; experiment: MIC assay, clinical isolate; type: cell-based; details: Enterococcus faecium; clinical isolate E. faecium 2504; read-out: MIC
Protocol: as §1, §2, §3

[5] = test system: E. faecium 1205; experiment: MIC assay, clinical isolate; type: cell-based; details: Enterococcus faecium; clinical isolate E. faecium 1205; read-out: MIC
Protocol: as §1, §2, §3

[6] = test system: E. faecium 0609; experiment: MIC assay, clinical isolate; type: cell-based; details: Enterococcus faecium; clinical isolate E. faecium 0609; read-out: MIC
Protocol: as §1, §2, §3

[7] = test system: S. aureus 2802; experiment: MIC assay, clinical isolate; type: cell-based; details: Staphylococcus aureus; clinical isolate S. aureus 2802; read-out: MIC
Protocol: as §1, §2, §3

[8] = test system: S. haemolyticus 1107; experiment: MIC assay, clinical isolate; type: cell-based; details: Staphylococcus haemolyticus; clinical isolate S. haemolyticus 1107; read-out: MIC
Protocol: as §1, §2, §3

[9] = test system: E. faecalis 2305; experiment: MIC assay, clinical isolate; type: cell-based; details: Enterococcus faecalis
Protocol: as §1, §2, §3

[10] = test system: S. haemolyticus 0202; experiment: MIC assay, clinical isolate; type: cell-based; details: Staphylococcus haemolyticus; clinical isolate S. haemolyticus 0202; read-out: MIC
Protocol: as §1, §2, §3

[11] = test system: E. faecalis 0609; experiment: MIC assay, clinical isolate; type: cell-based; details: Enterococcus faecalis
Protocol: as §1, §2, §3

[12] = test system: E. faecium 0610; experiment: MIC assay, clinical isolate; type: cell-based; details: Enterococcus faecium; clinical isolate E. faecium 0610; read-out: MIC
Protocol: as §1, §2, §3

[13] = test system: S. epidermidis 9397; experiment: MIC assay, clinical isolate; type: cell-based; details: Staphylococcus epidermidis; clinical isolate S. epidermidis 9397; read-out: MIC
Protocol: as §1, §2, §3

[14] = test system: S. epidermidis 0501; experiment: MIC assay, clinical isolate; type: cell-based; details: Staphylococcus epidermidis; clinical isolate S. epidermidis 0501; read-out: MIC
Protocol: as §1, §2, §3

[15] = test system: S. haemolyticus 1303; experiment: MIC assay, clinical isolate; type: cell-based; details: Staphylococcus haemolyticus; clinical isolate S. haemolyticus 1303; read-out: MIC
Protocol: as §1, §2, §3

[16] = test system: S. aureus 2904; experiment: MIC assay, clinical isolate; type: cell-based; details: Staphylococcus aureus; clinical isolate S. aureus 2904; read-out: MIC
Protocol: as §1, §2, §3

[17] = test system: E. faecium 0502; experiment: MIC assay, clinical isolate; type: cell-based; details: Enterococcus faecium; clinical isolate E. faecium 0502; read-out: MIC
Protocol: as §1, §2, §3

[18] = test system: L. monocytogenes 1001; experiment: MIC assay, clinical isolate; type: cell-based, Listeria monocytogene; details: Listeria monocytogenes
Protocol: as §1, §2, §3

[19] = test system: S. aureus USA300 mature biofilm; experiment: Activity against mature biofilm; type: cell-based, Staphylococcus aureus; details: for Biofilm survival(%): norfloxacin, r4-r9 = 64, 128, 256, 512, 1024, 2048 MIC
Protocol: The plate was incubated at 37 °C for 24 h to allow biofilm formation. […] Then MTT assay was used to determine the biofilm viability. Wells containing inoculum and without antibacterial agents were used as the positive control; wells containing only MH medium were used as the blank. The percentage of surviving cells within biofilm was calculated from5 %cellviability=A570polymer-A570blank/A570control-A570blank×100
as §3

[20] = test system: S. aureus USA300 biofilm formation; experiment: Inhibition study on biofilm formation; type: cell-based, Staphylococcus aureus
Protocol: The plate was incubated at 37 °C for 24 h, and then the culture medium was removed, washed with PBS once, followed by adding 100 µL MTT solution (0.5 mg/mL) into the corresponding well. After further incubation at 37 °C for 4 h in the dark, the MTT solution was removed. An aliquot of 100 μL DMSO was added to each well to solubilize the purple solid and then the OD value was collected at 570 nm on a microplate reader. Wells containing inoculum and without antibacterial agents were used as the positive control; wells containing only MH medium were used as the blank. The percentage of surviving cells within biofilm was calculated from4 %cellviability=A570polymer-A570blank/A570control-A570blank×100
as §3

[21] = test system: S. aureus ATCC6538; experiment: Bacterial killing kinetics; type: cell-based, Staphylococcus aureus; details: 2×MBC (Figure S40)
[22] = test system: S. aureus ATCC6538; type: cell-based, Staphylococcus aureus; details: after 375 passages
Protocol: The antimicrobial-resistance test was conducted according to the previously reported method with slight modification. […] An aliquot of 2.5 μL of the mixture was sampled and diluted 400-fold in LB medium for a new cell-drug incubation cycle. The above cycle was repeated every 24 h. […] Generation of bacteria growth was calculated from incubating time and bacteria growth kinetics described below.

[23] = clinical isolate L. monocytogenes 1001, read-out: MIC
[24] = clinical isolate E. faecalis 2305, read-out: MIC

Structure (SMILES)	MIC [1]	MIC [2]	MIC [3]	MIC [4]	MIC [5]	MIC [6]	MIC [7]	MIC [8]	MIC [10]	MIC [11]; 0609	MIC [12]	MIC [13]	MIC [14]	MIC [15]	MIC [16]	MIC [17]	MIC [18, 23]	MIC [9, 24]	time to kill 90% of S. aureus [21]	also measured
CC1(C)S[C@@H]2[C@H](NC(=O)[C@H](N)c3ccccc3)C(=O)N2[C@H]1C(=O)O [Ampicillin]	25 µg/mL (≈ 71.5 µM)	0.39 µg/mL (≈ 1.12 µM)	1.56 µg/mL (≈ 4.46 µM)	100 µg/mL (≈ 286 µM)	> 200 µg/mL	> 200 µg/mL	25 µg/mL (≈ 71.5 µM)	> 200 µg/mL	200 µg/mL (≈ 572 µM)	3.13 µg/mL (≈ 8.96 µM)	> 200 µg/mL	0.39 µg/mL (≈ 1.12 µM)	6.25 µg/mL (≈ 17.9 µM)	200 µg/mL (≈ 572 µM)	25 µg/mL (≈ 71.5 µM)	> 200 µg/mL	1.56 µg/mL (≈ 4.46 µM)			MIC [9]; 2305: 12.5 µg/mL (≈ 35.8 µM)
COc1cccc(OC)c1C(=O)N[C@@H]1C(=O)N2[C@@H]1SC(C)(C)[C@@H]2C(=O)O [Methicillin]	12.5 µg/mL (≈ 32.9 µM)	1.56 µg/mL (≈ 4.1 µM)	3.13 µg/mL (≈ 8.23 µM)	> 200 µg/mL	> 200 µg/mL	> 200 µg/mL	6.25 µg/mL (≈ 16.4 µM)	> 200 µg/mL	200 µg/mL (≈ 526 µM)		> 200 µg/mL	1.56 µg/mL (≈ 4.1 µM)	12.5 µg/mL (≈ 32.9 µM)	> 200 µg/mL	6.25 µg/mL (≈ 16.4 µM)	> 200 µg/mL	25 µg/mL (≈ 65.7 µM)	> 200 µg/mL		MIC ([11]; clinical isolate E. faecalis 0609, read-out: MIC): 50 µg/mL (≈ 131 µM)
CCn1cc(C(=O)O)c(=O)c2cc(F)c(N3CCNCC3)cc21 [Norfloxacin]	25 µg/mL (≈ 78.3 µM)	25 µg/mL (≈ 78.3 µM)	50 µg/mL (≈ 157 µM)	200 µg/mL (≈ 626 µM)	100 µg/mL (≈ 313 µM)	> 200 µg/mL	200 µg/mL (≈ 626 µM)	100 µg/mL (≈ 313 µM)	100 µg/mL (≈ 313 µM)	1.56 µg/mL (≈ 4.89 µM)	200 µg/mL (≈ 626 µM)	0.2 µg/mL (≈ 0.626 µM)	0.2 µg/mL (≈ 0.626 µM)	25 µg/mL (≈ 78.3 µM)	200 µg/mL (≈ 626 µM)	100 µg/mL (≈ 313 µM)		25 µg/mL (≈ 78.3 µM)	2 to 3 h	concentration that eradicates mature biofilms of S. aureus [19]: > 2048 × MIC; Biofilm survival(%) ([19]; replicate 1): 91.6463% and 85.7695% and 83.8544% and 89.6297% and 72.4394% and 55.1024%; Biofilm survival(%) ([19]; replicate 2): 89.0013% and 75.6713% and 82.9402% and 81.0138% and 70.6748% and 61.6339%; Biofilm survival(%) ([19]; replicate 3): 91.3528% and 81.8867% and 88.4821% and 86.774% and 64.2036% and 56.0543%; concentration required to inhibit the formation of S. aureus biofilm [20]: 64 × MIC; MIC [18]; 1001: 1.56 µg/mL (≈ 4.89 µM); increase of MBC [22]: 1024 times
C[C@H]1COc2c(N3CCN(C)CC3)c(F)cc3c(=O)c(C(=O)O)cn1c23 [levofloxacin]																			2 to 3 h	
